This experiment has as its system HeLa. Description: Cytotoxicity against human HeLa cells. The class given is functional, cell-based.

These results are taken from ChEMBL document CHEMBL1150071, “Konbamidin, a new indole alkaloid from the Okinawan marine sponge Ircinia sp” (J Nat Prod, 1994).

Converted amounts (≈) assume the structure as drawn.

For orientation: IC50 means the concentration needed to halve the response being measured. The low end stands for greater potency, the high end for weaker potency. `O=C(O)CN[C@H](Cc1c[nH]c2ccccc12)C(=O)O` [KONBAMIDIN] showed an IC50 of 5.4 µg/mL (≈ 20.6 µM).
